# In US20240050408A1, “USE OF MGLUR5 ANTAGONISTS FOR TREATING AMPHETAMINE ADDICTION” (NOVARTIS AG, priority 2020, published 2024):
# Assays:
# Assay type in all cases: in vivo, human
# [1] = system: patients with Cocaine Use Disorder (CUD); experiment: Phase 2 trial: quantitative urine measurement of benzoylecgonine (BE); settings: 98-day administration, P=0.025
# Description: (§1) This study was conducted in patients with CUD and consisted of about a 21-day screening period followed by a 7-day baseline period, a 98-day outpatient treatment period, and an end of study visit evaluation about 14 days after the last study drug administration ([…]. A). Study treatment was taken twice daily (separated by about 12-hour intervals) with food. For patients in the mavoglurant arm [mavoglurant (free form) provided as modified release formulation (e.g. in WO2014/199316)], an uptitration regimen was performed for 14 days (50 mg b.i.d. from Days 1 to 7 and 100 mg b.i.d from Days 8 to 14) and was followed by 200 mg b.i.d for 84 days.
# The primary endpoint was the proportion of cocaine use days during the treatment period, assessed by timeline followback [TLFB] cocaine self-report report. The secondary endpoints included a weekly urine analysis for a log-transformed quantitative measure of cocaine metabolite benzoylecgonine (BE), safety assessments (clinical parameters, suicidal ideation, adverse events [AE] and serious adverse events [SAE] at every visit), and pre- and post-dose levels of mavoglurant in the plasma. […]
# Two urine samples per week provided a log-transformed quantitative measure of BE (cocaine's metabolite). […]
# [2] = system: patients with Cocaine Use Disorder (CUD); experiment: Phase 2 trial: abstinence in the last weeks of treatment (TLFB and negative urine BE); settings: self-report (TLFB) and negative urine BE; placebo 16.7%; P=0.040
# Description: as §1
# A subject was considered abstinent the last x weeks of treatment if they completed the 14-week treatment period and were abstinent the last x weeks (with x=1, 2, 3. . . . , 14).
# A subject was considered abstinent the last x weeks of treatment if they completed the 14-week treatment period and were abstinent the last x weeks (with x=1, 2, 3. . . . , 14). […] Binary response variables based on abstinence were calculated.
# This analysis was added in order to inform on abstinence rates as this is an important endpoint in Phase III CUD studies. Binary response variables based on abstinence were calculated.
# [3] = system: patients with Cocaine Use Disorder (CUD); experiment: Phase 2 trial: hair analysis; settings: end of study vs baseline; compared to placebo
# Description: Hair analysis was used as an adjunct to urine samples collection and helps document drug use history. Hair specimens were collected and at baseline and at the end of the study. Patients with hair shorter than 3 cm or bleached and/or dyed hair (proximal 4 cm) were excluded from this assessment. If only the tip of long hairs were bleached, samples were collected.
# The quantitative measures were log-transformed and individual ratio between end of study and baseline was calculated and listed by treatment, subject and visit/time. The log-transformed data profiles over time were explored, compared between treatment groups and the relationship between cocaine and alcohol measures in hair, in urine and timeline follow-back was assessed.
# Summary statistics were provided by treatment and visit/time. Heatmaps to visualize the trend in the log-transformed quantitative measures were created. To explore the relationship between the log-transformed quantitative measures of the compounds being assayed and the timeline follow-back cocaine and alcohol measures, scatterplots were created for the end of study results. […]
# To ensure that the hair analysis quantitative parameters only had numerical values, censored values were imputed as follows • Values below the LLOQ were replaced by LLOQ/2. • Values above the ULOQ were replaced by ULOQ.
# [4] = Phase 2 trial: safety and adverse events
# Description: as §1
# Data for vital signs, electrocardiogram (ECG) and clinical laboratory evaluations were summarized by treatment and visit/time. Mavoglurant plasma concentrations were recorded at pre-dose and 2 hour (±1 hour) sampling window after the morning dose and summary statistics for concentrations were provided for plasma.
# Data for vital signs (BP, pulse rate, body temperature), ECGs, and clinical laboratory evaluations were listed by treatment, subject, visit/time; abnormalities were flagged (if ranges were available).
# The number and percentage of subjects with AEs are tabulated by body system and PT with a breakdown by treatment. A subject with multiple AEs within body system was only counted once towards the total of this body system and treatment.
# Patient Reported Outcome included: • 1. The TLFB cocaine: is a cocaine assessment method that obtains estimates of daily cocaine intake and has been evaluated with clinical and nonclinical populations. Using a calendar, people provide retrospective estimates of their daily cocaine use over a specified time period that can vary up to 12 months from the interview date. Several memory aids can be used to enhance recall (e.g., calendar; key dates serve as anchors for reporting cocaine use). […] The method is recommended for use when relatively precise estimates of cocaine use are necessary, especially when a complete use pre-posttreatment). Clinically, the TLFB can be used to provide feedback about one's cocaine consumption in an effort to increase a client's motivation to change. • 2. The TLFB alcohol: is a drinking assessment method that obtains estimates of daily drinking and has been evaluated with clinical and nonclinical populations. Using a calendar, people provide retrospective estimates of their daily drinking over a specified time period that can vary up to 12 months from the interview date. Several memory aids can be used to enhance recall (e.g., calendar; key dates serve as anchors for reporting drinking; standard drink conversion). […] The method is recommended for use when relatively precise estimates of drinking are necessary, especially when a complete picture of drinking days (i.e., high- and low-risk days) is needed (evaluating drinking pre/post-treatment). Clinically, the TLFB can be used to provide feedback about one's drinking in an effort to increase a client's motivation to change. Overall, the Alcohol TLFB method provides a relatively accurate portrayal of drinking, and has both clinical and research utility. • 3. The BDI-II: is instrument endorsed by the National Institute for Health and Clinical Excellence for use in primary care in measuring baseline depression severity and responsiveness to treatment. • 4. The STAI: is an assessment tool for measuring the presence and severity of current symptoms of anxiety and a generalized propensity to be anxious. There are 2 subscales within this measure. First, the State Anxiety Scale (S-Anxiety) evaluates the current state of anxiety, asking how respondents feel “right now,” using items that measure subjective feelings of apprehension, tension, nervousness, worry, and activation/arousal of the autonomic nervous system. […]
compound,measurement,setting,value
"COC(=O)N1CC[C@@H]2[C@H]1CCC[C@@]2(O)C#Cc1cccc(C)c1 [mavoglurant, (-)-(3aR,4S,7aR)-4-Hydroxy-4-m-tolylethynyl-octahydro-indole-1-carboxylic acid methyl ester]",cocaine consumption as assessed by urine benzoylecgonine (BE) vs placebo,[1],significantly lower levels of BE in urine
same,cocaine consumption as assessed by urine benzoylecgonine (BE) vs placebo,[1]; listed as Mavoglurant,significantly reduced cocaine consumption
same,proportion of patients with cocaine abstinence in the last 3 weeks of the study,[2],41.4%
same,"hair analysis: cocaine and metabolite, change from baseline",[3],higher reductions from baseline as compared to placebo
same,overall AE rate vs placebo group,"[4]; CUD patients, 98-day treatment",comparable
same,overall safety and tolerability,"[4]; CUD patients, 98-day treatment",safe and well tolerated
same,rate of psychiatric symptoms vs placebo group,"[4]; CUD patients, 98-day treatment",higher rate of psychiatric symptoms
same,"vital signs, ECGs, clinical safety laboratory parameters","[4]; CUD patients, 98-day treatment",no significant findings
same,overall safety and tolerability,"[4]; CUD patients, 98-day treatment, listed as Mavoglurant",safe and well-tolerated
same,deaths or SAEs,[4]; mavoglurant group,no deaths or SAEs
